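Each compound was tested at five concentrations against cells in 96-well plates for 48 hours. GI50 marks 50% less growth. TGI is the concentration that stops growth completely.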

This is an account of results in PubChem BioAssay (NCI).

Test systems include OVCAR-4 ovarian; NCI-H522 lung; TK-10 renal; SN12C renal; OVCAR-3 ovarian; SK-OV-3 ovarian; OVCAR-8 ovarian; MOLT-4 leukemia; PC-3 prostate; MDA-MB-435.
Assay in all cases: NCI anticancer screen, dose series, 48 h

For the molecule `CCc1ccccc1-n1c2nc(=O)n(C)c(=O)c-2nc2ccccc21`, the TGI in the assay on OVCAR-4 ovarian is 18.2 µM; with NCI-H522 lung, 27.3 µM; in the assay on TK-10 renal, 35.4 µM; in the assay on SN12C renal it was 26.6 µM; in the assay with OVCAR-3 ovarian it was 6.79 µM; in the assay on SK-OV-3 ovarian, above 100 µM. The TGI with OVCAR-8 ovarian was 21.6 µM; with MOLT-4 leukemia it was 35.4 µM.

In the case of `O=C(CCc1ccccc1)On1nnc2ccccc2c1=O`, the TGI was above 100 µM in the assay on OVCAR-4 ovarian; above 100 µM in the assay with NCI-H522 lung; 96.2 µM with TK-10 renal; above 100 µM in the assay on SN12C renal; above 100 µM with OVCAR-3 ovarian; above 100 µM in the assay on SK-OV-3 ovarian. The TGI in the assay on OVCAR-8 ovarian and with MOLT-4 leukemia was above 100 µM throughout.

Turning to `O=C1OC(c2ccccc2)=N/C1=C\c1c(O)cc(O)cc1O`, the TGI with OVCAR-4 ovarian, in the assay with NCI-H522 lung, with TK-10 renal, in the assay on SN12C renal, with OVCAR-3 ovarian and in the assay with SK-OV-3 ovarian was above 100 µM in each case. Further, the TGI with OVCAR-8 ovarian and in the assay on MOLT-4 leukemia was above 100 µM in each case.

`Cc1cccc2c1Oc1cc(Cl)ccc1C2NC(=O)CN(C)C` (stereo not given): the TGI with OVCAR-4 ovarian, with TK-10 renal, in the assay on SN12C renal, in the assay with SK-OV-3 ovarian, with OVCAR-8 ovarian and with MOLT-4 leukemia was above 100 µM throughout.

`N#CCC(=O)N/N=C1/C(=O)NC(=O)C(=O)C1c1nc2ccccc2s1` (stereo not given): the TGI with OVCAR-4 ovarian, with NCI-H522 lung, in the assay on TK-10 renal, in the assay on SN12C renal, in the assay with OVCAR-3 ovarian and in the assay with SK-OV-3 ovarian was above 100 µM throughout. Moreover, the TGI with OVCAR-8 ovarian and in the assay on MOLT-4 leukemia was above 100 µM each time.

`COc1ccc(/C=C/c2nc(=S)[nH][nH]2)cc1`: the TGI in the assay on OVCAR-4 ovarian, in the assay with NCI-H522 lung, in the assay on TK-10 renal, with SN12C renal, with OVCAR-3 ovarian and in the assay with OVCAR-8 ovarian was above 100 µM throughout. The same molecule showed a TGI with MOLT-4 leukemia above 100 µM.

In the case of `COc1ccccc1CNC(=O)C1c2ccccc2C(=O)N(CC(C)C)C1c1cccs1` (stereo not given), the GI50 in the assay with OVCAR-4 ovarian was 26.2 µM; with TK-10 renal, 26.3 µM; in the assay on SN12C renal it was 35 µM; in the assay with OVCAR-3 ovarian, 25.7 µM; in the assay with SK-OV-3 ovarian it was 36.9 µM; in the assay on PC-3 prostate, 15.9 µM. The values for the GI50 in the assay with MDA-MB-435, in the assay on OVCAR-8 ovarian and in the assay with MOLT-4 leukemia were 16.8 µM, 23.6 µM and 14.5 µM, respectively. Besides, the TGI in the assay with OVCAR-4 ovarian is above 100 µM; with TK-10 renal, 66.9 µM; in the assay on SN12C renal, above 100 µM; in the assay with OVCAR-3 ovarian, 89.1 µM; with SK-OV-3 ovarian, above 100 µM; in the assay on PC-3 prostate, above 100 µM. Besides, the TGI in the assay with MDA-MB-435 was 39.3 µM; in the assay with OVCAR-8 ovarian it was above 100 µM; with MOLT-4 leukemia, 73.9 µM.

On to `CN1CCN(Cc2ccc(NC(=O)c3[nH]ncc3Nc3ncnc4sccc34)cc2)CC1`, for which the GI50 in the assay with OVCAR-4 ovarian was 0.326 µM; in the assay with TK-10 renal, 2.16 µM; in the assay on SN12C renal, 0.361 µM; in the assay with OVCAR-3 ovarian, 0.306 µM; with PC-3 prostate it was 0.394 µM; in the assay with MDA-MB-435, 0.394 µM. For the same molecule, the GI50 was 0.413 µM in the assay on OVCAR-8 ovarian and 0.207 µM in the assay on MOLT-4 leukemia. The TGI is 3.92 µM with OVCAR-4 ovarian; 19.6 µM in the assay on TK-10 renal; above 100 µM with SN12C renal; 2.54 µM in the assay on OVCAR-3 ovarian; above 100 µM in the assay on PC-3 prostate; above 100 µM with MDA-MB-435. In addition, the results for the TGI in the assay on OVCAR-8 ovarian and with MOLT-4 leukemia were above 100 µM and 0.853 µM, respectively.

On to `COc1ccc(NC(=O)Nc2ccc(Nc3nc(C)cc(Nc4ccc(C)cc4)n3)cc2)cc1`, for which the GI50 was 1.16 µM in the assay with OVCAR-4 ovarian; 1.93 µM in the assay with NCI-H522 lung; 1.68 µM with TK-10 renal; 1.88 µM with SN12C renal; 1.35 µM in the assay on OVCAR-3 ovarian; 2.46 µM with SK-OV-3 ovarian. Also, the figures for the GI50 in the assay on PC-3 prostate and with MOLT-4 leukemia were 1.46 µM and 0.257 µM, respectively. The TGI was 2.55 µM in the assay on OVCAR-4 ovarian; 4.42 µM in the assay on NCI-H522 lung; 3.06 µM in the assay with TK-10 renal; 3.86 µM in the assay on SN12C renal; 2.81 µM with OVCAR-3 ovarian; 6.59 µM with SK-OV-3 ovarian. Further, the TGI in the assay with PC-3 prostate is 2.88 µM; in the assay on MOLT-4 leukemia, 0.75 µM.

Consider `Cc1ccc(S(=O)(=O)NC(CCC(=O)Nc2ccccc2)C(=O)Nc2ccccc2)cc1` (stereo not given), for which the GI50 is 0.276 µM with NCI-H522 lung; 0.419 µM in the assay on OVCAR-3 ovarian; 0.47 µM with SK-OV-3 ovarian; 0.437 µM in the assay on MDA-MB-435; 0.5 µM in the assay on OVCAR-8 ovarian; 0.375 µM with MOLT-4 leukemia. Further, the TGI in the assay on NCI-H522 lung was 1.14 µM; with OVCAR-3 ovarian, 1.35 µM; in the assay with SK-OV-3 ovarian it was 2.39 µM; with MDA-MB-435, 2.06 µM; with OVCAR-8 ovarian, 2.57 µM; with MOLT-4 leukemia it was above 100 µM.

On to `COC1(OC)CC2C(=O)N(Cc3ccccc3)C1CC2S(=O)(=O)c1ccccc1` (stereo not given), for which the TGI in the assay on NCI-H522 lung, in the assay on TK-10 renal, in the assay with SN12C renal, in the assay on OVCAR-3 ovarian, in the assay with SK-OV-3 ovarian and in the assay on OVCAR-8 ovarian was above 100 µM throughout. The molecule also showed a TGI in the assay with MOLT-4 leukemia above 100 µM.

For the molecule `CCOC(=O)C1=C(NC(C)(C)C)OCC1=O`, the TGI in the assay with OVCAR-4 ovarian, with NCI-H522 lung, with TK-10 renal, in the assay on SN12C renal, in the assay on OVCAR-3 ovarian and in the assay with SK-OV-3 ovarian was above 100 µM throughout. In addition, the TGI in the assay on OVCAR-8 ovarian and in the assay on MOLT-4 leukemia was above 100 µM each time.

For `Cc1c(C2Cc3ccccc3N2C(=O)/C=C\C(=O)O)c2ccccc2n1C` (stereo not given), the TGI is above 100 µM with OVCAR-4 ovarian; 46.4 µM in the assay on NCI-H522 lung; 44.6 µM in the assay on TK-10 renal; 45.6 µM in the assay on SN12C renal; 43.1 µM in the assay with OVCAR-3 ovarian; 48.5 µM in the assay with SK-OV-3 ovarian. In addition, the values for the TGI with OVCAR-8 ovarian and in the assay with MOLT-4 leukemia were 43.6 µM and 93.3 µM, respectively.
